Test results as given in patent US20180020667A1, “CHEMICAL COMPOSITIONS THAT PRESENT SYNERGIC EFFECT FOR […] INSECTS IN PERSONAL HYGIENE PRODUCTS, COSMETICS FOR HUMAN USE, IN ANIMALS AND ON INANIMATE SURFACES IN GENERAL” (Universal Chemical Ltda., priority 2016, published 2018).
Where two headings read alike, the source gives them in different places.

Legend:
[1] = tested on: insects; assay: Length of protection against insect bites after application on the skin (conducted tests); type: in vivo
Source text: Icaridin and DEET are employed in this synergic mixture as active ingredient.

[2] = tested on: insects; settings: cited from earlier work
[3] = 5% active ingredient in the repellent
[4] = 10% active ingredient in the repellent
[5] = 15% active ingredient in the repellent
[6] = 20% active ingredient in the repellent

Compound | Length of protection against insect bites ([1]; 7% concentration in the insect repellent) [h] | Length of protection against insect bites ([1]; 50% concentration in the insect repellent) [h] | Repellent Capacity Length of Protection [2, 3] [h] | Repellent Capacity Length of Protection [2, 4] [h] | Repellent Capacity Length of Protection [2, 5] [h] | Repellent Capacity Length of Protection [2, 6] [h] | Repellent Capacity Length of Protection ([2]; 50% active ingredient in the repellent) [h] | Length of protection against insect bites ([2]; concentration of 50%) [h] | Length of protection against insect bites ([1]; 10% concentration in the insect repellent) [h] | Length of protection against insect bites ([1]; 20% concentration in the insect repellent) [h] | Length of protection against insect bites ([2]; concentrations between 20 to 25%)
N,N-dimethyl-3-methylbenzamide [DEET] | 2 | 10 | 1 | 2 | 4 | 6 | 10 | 10 |  |  | 
CCC(C)OC(=O)N1CCCCC1CCO (stereo not drawn) [Icaridin, 1-piperidinecarboxylic acid, 2-(2-hydroxyethyl)-, 1-methylpropyl ester] |  |  | 1.5 | 4 | 7 | 10 |  |  | 4 | 10 | up to 10 hours
